Measured values from patent US20140345648A1, “Oral Healthcare, Products and Methods Therefor” (OZOSPA HOLDINGS LIMITED, priority 2011, published 2014).

Tests used:
[1] = test system: Streptococcus mutans ATCC 25175; test: Challenge test of powder product, liquid product, xylitol and bicarbonate of soda (based on B.S.3286:1960), Example 4; format: cell-based; settings: for Streptococcus mutans ATCC 25175 Population Levels T = 0: Day 0, powders 1:5, liquid neat; for Streptococcus mutans ATCC 25175 Population Levels T = 2: Day 1, 2 hrs after 10 mls of fresh sol'n added; for Streptococcus mutans ATCC 25175 Population Levels T = 1: Day 1, prior to 10 mls of fresh sol'n added; for Streptococcus mutans ATCC 25175 Population Levels T = 4: Day 2, 2 hrs after 10 mls of fresh sol'n added; for Streptococcus mutans ATCC 25175 Population Levels T = 3: Day 2, prior to 10 mls of fresh sol'n added; for Streptococcus mutans ATCC 25175 Population Levels T = 6: Day 3, 2 hrs after 10 mls of fresh sol'n added; for Streptococcus mutans ATCC 25175 Population Levels T = 5: Day 3, prior to 10 mls of fresh sol'n added; for Streptococcus mutans ATCC 25175 Population Levels T = 8: Day 4, 2 hrs after 10 mls of fresh sol'n added; for Streptococcus mutans ATCC 25175 Population Levels T = 7: Day 4, prior to 10 mls of fresh sol'n added
Experimental: (§1) The powder product and the liquid product were challenge tested against the organisms Streptococcus mutans and Porphyromonas gingivalis. […] The challenge method used was based on B.S.3286: 1960 “Method for Laboratory Evaluation of Disinfectant Activity of Quaternary Ammonium Compounds by Suspension Test Procedure”. This standard describes a test procedure for the laboratory evaluation of the activity of disinfectants, in which a suspension of viable microorganisms is added to solutions containing a pre-determined concentration of the disinfectant and the numbers of organisms surviving after a period of time is determined. A 1:5 solution of the powders with sterile deionised water was used for the challenge testing. The liquid product was used neat. The following organisms were used for the challenge testing: […] A modification will be made to the method by the addition of 10 ml of each solution each day, for 4 days. (The blank solution would have 10 ml of Neutralising buffer added.) […]

[2] = test system: Porphyromonas gingivalis ATCC 3327; test: as above; format: cell-based; settings: for Porphyromonas gingivalis ATCC 3327 Population Levels T = 0 / Porphyromonas gingivalis ATCC 3327 Population Levels T = 2 / Porphyromonas gingivalis ATCC 3327 Population Levels T = 1 / Porphyromonas gingivalis ATCC 3327 Population Levels T = 4 / Porphyromonas gingivalis ATCC 3327 Population Levels T = 3 / Porphyromonas gingivalis ATCC 3327 Population Levels T = 6 / Porphyromonas gingivalis ATCC 3327 Population Levels T = 5 / Porphyromonas gingivalis ATCC 3327 Population Levels T = 8 / Porphyromonas gingivalis ATCC 3327 Population Levels T = 7: Table 7; for Porphyromonas gingivalis ATCC 3327 Population Levels T = 0: Day 0, powders 1:5, liquid neat; for Porphyromonas gingivalis ATCC 3327 Population Levels T = 2: Day 1, 2 hrs after 10 mls of fresh sol'n added; for Porphyromonas gingivalis ATCC 3327 Population Levels T = 1: Day 1, prior to 10 mls of fresh sol'n added; for Porphyromonas gingivalis ATCC 3327 Population Levels T = 4: Day 2, 2 hrs after 10 mls of fresh sol'n added; for Porphyromonas gingivalis ATCC 3327 Population Levels T = 3: Day 2, prior to 10 mls of fresh sol'n added; for Porphyromonas gingivalis ATCC 3327 Population Levels T = 6: Day 3, 2 hrs after 10 mls of fresh sol'n added; for Porphyromonas gingivalis ATCC 3327 Population Levels T = 5: Day 3, prior to 10 mls of fresh sol'n added; for Porphyromonas gingivalis ATCC 3327 Population Levels T = 8: Day 4, 2 hrs after 10 mls of fresh sol'n added; for Porphyromonas gingivalis ATCC 3327 Population Levels T = 7: Day 4, prior to 10 mls of fresh sol'n added; for effect against the Porphyromonas gingivalis population (in words): controlled laboratory test
Experimental: as §1

O=C([O-])O.[Na+] [Bicarbonate of Soda solution, Sodium Bicarbonate]
Streptococcus mutans ATCC 25175 Population Levels T = 0 [1]: 1.5 × 10^7 cfu/ml
Streptococcus mutans ATCC 25175 Population Levels T = 2 [1]: 3.4 × 10^5 cfu/ml
Streptococcus mutans ATCC 25175 Population Levels T = 1 [1]: 1.8 × 10^6 cfu/ml
Streptococcus mutans ATCC 25175 Population Levels T = 4 [1]: 3.2 × 10^4 cfu/ml
Streptococcus mutans ATCC 25175 Population Levels T = 3 [1]: 6.7 × 10^4 cfu/ml
Streptococcus mutans ATCC 25175 Population Levels T = 6 [1]: 2.8 × 10^3 cfu/ml
Streptococcus mutans ATCC 25175 Population Levels T = 5 [1]: 7.7 × 10^3 cfu/ml
Streptococcus mutans ATCC 25175 Population Levels T = 8 [1]: 10 cfu/ml
Streptococcus mutans ATCC 25175 Population Levels T = 7 [1]: 1.2 × 10^2 cfu/ml
reduction in the Streptococcus mutans population ([1]; over the 5 days, Example 4): 6 log
Porphyromonas gingivalis ATCC 3327 Population Levels T = 0 [2]: 2.5 × 10^6 cfu/ml
Porphyromonas gingivalis ATCC 3327 Population Levels T = 2 [2]: 3.1 × 10^5 cfu/ml
Porphyromonas gingivalis ATCC 3327 Population Levels T = 1 [2]: 5.9 × 10^5 cfu/ml
Porphyromonas gingivalis ATCC 3327 Population Levels T = 4 [2]: 1.1 × 10^5 cfu/ml
Porphyromonas gingivalis ATCC 3327 Population Levels T = 3 [2]: 1.2 × 10^5 cfu/ml
Porphyromonas gingivalis ATCC 3327 Population Levels T = 6 [2]: 3.3 × 10^4 cfu/ml
Porphyromonas gingivalis ATCC 3327 Population Levels T = 5 [2]: 2.4 × 10^4 cfu/ml
Porphyromonas gingivalis ATCC 3327 Population Levels T = 8 [2]: 2.8 × 10^3 cfu/ml
Porphyromonas gingivalis ATCC 3327 Population Levels T = 7 [2]: 4.8 × 10^3 cfu/ml
effect against the Porphyromonas gingivalis population (in words) [2]: did not appear to be effective on its own

OC[C@@H](O)[C@H](O)[C@@H](O)CO [Xylitol solution, Xylitol]
Streptococcus mutans ATCC 25175 Population Levels T = 0 [1]: 1.5 × 10^7 cfu/ml
Streptococcus mutans ATCC 25175 Population Levels T = 2 [1]: 5.2 × 10^5 cfu/ml
Streptococcus mutans ATCC 25175 Population Levels T = 1 [1]: 7.8 × 10^6 cfu/ml
Streptococcus mutans ATCC 25175 Population Levels T = 4 [1]: 2.6 × 10^4 cfu/ml
Streptococcus mutans ATCC 25175 Population Levels T = 3 [1]: 1.0 × 10^5 cfu/ml
Streptococcus mutans ATCC 25175 Population Levels T = 6 [1]: 1.6 × 10^4 cfu/ml
Streptococcus mutans ATCC 25175 Population Levels T = 5 [1]: 1.0 × 10^4 cfu/ml
Streptococcus mutans ATCC 25175 Population Levels T = 8 [1]: <10 cfu/ml
Streptococcus mutans ATCC 25175 Population Levels T = 7 [1]: 30 cfu/ml
Porphyromonas gingivalis ATCC 3327 Population Levels T = 0 [2]: 2.6 × 10^6 cfu/ml
Porphyromonas gingivalis ATCC 3327 Population Levels T = 2 [2]: 1.9 × 10^3 cfu/ml
Porphyromonas gingivalis ATCC 3327 Population Levels T = 1 [2]: 9.1 × 10^3 cfu/ml
Porphyromonas gingivalis ATCC 3327 Population Levels T = 4 [2]: <10 cfu/ml
Porphyromonas gingivalis ATCC 3327 Population Levels T = 3 [2]: 20 cfu/ml
Porphyromonas gingivalis ATCC 3327 Population Levels T = 6 [2]: <10 cfu/ml
Porphyromonas gingivalis ATCC 3327 Population Levels T = 5 [2]: <10 cfu/ml
Porphyromonas gingivalis ATCC 3327 Population Levels T = 8 [2]: <10 cfu/ml
Porphyromonas gingivalis ATCC 3327 Population Levels T = 7 [2]: <10 cfu/ml
effect against the Porphyromonas gingivalis population (in words) [2]: reasonably effective
